Experimental data taken from patent US10111929B1, “Growth hormone releasing factor analogs and uses” (EZ IP, LLC, priority 2017, dated 2018).

Legend:
Assay type in all cases: in vivo
IGF-1 = assay: Human clinical trials: IGF-1 concentrations in participant blood samples
Procedure: (§1) Two challenges were being considered at the beginning of the human clinical trial. The first challenge was to document the stand-alone efficacy of HTA-8 as a new growth hormone releasing factor. The second was to determine if HTA-8 could be combined with other common releasing factors to create an even better result. As such, two separate trials were conducted. • Trial #1/HTA-8: Ten individuals ranging in age from 30 to 69 years were given 30 ng of HTA-8 in the form of an aerosolized oral spray before bed, over a 30-32 day period. • Trial #2/HTA-8+: Fifteen individuals ranging in age from 38 to 70 years of age were given an effervescent tablet to take once daily over a 25-36 day period that contained 20 ng of HTA-8 in combination with 1200 mg each of the amino acids lysine and arginine. (Previous published experimentation has shown that the combination of lysine and arginine in the doses used in Trial #2 is an effective GH releasing factor.)
The principal hormone measured in order to establish whether there is an increase in growth hormone secretion is IGF-1. IGF-1 concentrations and total cholesterol levels were determined by collecting participant blood samples at the beginning of the studies and at their conclusion.

total cholesterol = assay: Human clinical trials: total cholesterol levels in participant blood samples; settings: majority of clinical trial participants; with or without amino acids; absence of additional measures
Procedure: as §1
The principal hormone measured in order to establish whether there is an increase in growth hormone secretion is IGF-1. IGF-1 concentrations and total cholesterol levels were determined by collecting participant blood samples at the beginning of the studies and at their conclusion. […]

[1] = Human clinical trials: radial bone density by ultrasonographic technique; settings: subjects taking HTA-8 alone (Trial #1)
Procedure: as §1
An increase in bone density decreases the chance of fracture and […]. Bone density is a particularly important issue as the body ages, regardless of sex. During the Clinical Trials, radial bone density was measured using an ultrasonographic technique.

[2] = Human clinical trials: ultrasound-based body composition analysis and body weight; settings: all study participants in both clinical trials
Procedure: as §1

## H-D-Ala-D-2-Nal-Trp-H is-Trp-D-Phe-Lys-N H2 [HTA-8]
IGF-1; Trial #1: 30 ng HTA-8 oral spray before bed, 30-32 days, person
  maximum IGF-1 level measured in all clinical trial participants after the study period: 410 ng/mL
IGF-1; Trial #1: HTA-8 alone, oral spray
  GHRF activity (IGF-1 response): bona fide, stand-alone GHRF
IGF-1; Trial #2: effervescent tablet once daily, 20 ng HTA-8 with 1200 mg each lysine and arginine, after 25-36 day period
  IGF-1 level on average, after (increased to): 202 ng/mL
IGF-1; Trial #2: effervescent tablet once daily, 20 ng HTA-8 with 1200 mg each lysine and arginine, beginning of study
  IGF-1 level on average, before (increased from): 170 ng/mL
Total cholesterol
  change in total cholesterol levels over the study period: clinically significant decrease
[1]
  average increase in bone density: 6.8%
[2]
  change in adipose tissue mass: decrease in adipose tissue mass
  change in lean muscle mass: increase in lean muscle mass
